Data reported in ChEMBL document CHEMBL3862021, “Eeyarestatin I derivatives with improved aqueous solubility” (Bioorg Med Chem Lett, 2016).
≈ marks a conversion by molar mass, not a printed value. Calls of active or inactive are those of the source. The rule behind the calls is not given here.

How the values were obtained:
[1] = molecular target: Transitional endoplasmic reticulum ATPase (Homo sapiens) (UniProt P55072); assay: Inhibition of p97 in HEK293T cells assessed as induction of ER-stress by measuring ATF4 expression at 20 uM after 16 hrs by immunoblot analysis; assay type: cell-based; details: HEK-293T
[2] = Primary phase half life in human liver microsomes at 1 uM in presence of NADPH by LC-MS/MS analysis; assay type: ADME; details: read-out: alphat1/2
[3] = Effect on endogenous p97 protein level in HEK293T cells up to 40 uM after 16 hrs by immunoblot analysis; assay type: ADME, cell-based; details: human, hek-293t
[4] = molecular target: Transitional endoplasmic reticulum ATPase (Homo sapiens) (UniProt P55072); assay: Inhibition of p97 in HEK293T cells assessed as induction of ER-stress by measuring ATF3 expression up to 40 uM after 16 hrs by immunoblot analysis; assay type: cell-based; details: HEK-293T
[5] = Half life in mouse plasma by LC-MS/MS analysis; assay type: ADME, cell-free
[6] = Terminal phase half life in human liver microsomes at 1 uM in presence of UDPGA by LC-MS/MS analysis; assay type: ADME; details: read-out: beta t1/2
[7] = Terminal phase half life in mouse liver microsomes at 1 uM in presence of UDPGA by LC-MS/MS analysis; assay type: ADME; details: read-out: beta t1/2
[8] = Thermodynamic solubility of the compound in DPBS after 24 hrs by LC-MS/MS analysis; assay type: physicochemical; details: read-out: Therm_solubility
[9] = Antiproliferative activity against human MIAPaCa2 cells assessed as reduction in cell viability after 72 hrs by MTT assay; assay type: functional, cell-based; details: MIA PaCa-2, 72 h
[10] = Half life in human plasma by LC-MS/MS analysis; assay type: ADME, cell-free
[11] = Primary phase half life in mouse liver microsomes at 1 uM in presence of NADPH by LC-MS/MS analysis; assay type: ADME; details: read-out: alphat1/2

Sequence of Transitional endoplasmic reticulum ATPase (Homo sapiens) (P55072 2-806 limits assumed): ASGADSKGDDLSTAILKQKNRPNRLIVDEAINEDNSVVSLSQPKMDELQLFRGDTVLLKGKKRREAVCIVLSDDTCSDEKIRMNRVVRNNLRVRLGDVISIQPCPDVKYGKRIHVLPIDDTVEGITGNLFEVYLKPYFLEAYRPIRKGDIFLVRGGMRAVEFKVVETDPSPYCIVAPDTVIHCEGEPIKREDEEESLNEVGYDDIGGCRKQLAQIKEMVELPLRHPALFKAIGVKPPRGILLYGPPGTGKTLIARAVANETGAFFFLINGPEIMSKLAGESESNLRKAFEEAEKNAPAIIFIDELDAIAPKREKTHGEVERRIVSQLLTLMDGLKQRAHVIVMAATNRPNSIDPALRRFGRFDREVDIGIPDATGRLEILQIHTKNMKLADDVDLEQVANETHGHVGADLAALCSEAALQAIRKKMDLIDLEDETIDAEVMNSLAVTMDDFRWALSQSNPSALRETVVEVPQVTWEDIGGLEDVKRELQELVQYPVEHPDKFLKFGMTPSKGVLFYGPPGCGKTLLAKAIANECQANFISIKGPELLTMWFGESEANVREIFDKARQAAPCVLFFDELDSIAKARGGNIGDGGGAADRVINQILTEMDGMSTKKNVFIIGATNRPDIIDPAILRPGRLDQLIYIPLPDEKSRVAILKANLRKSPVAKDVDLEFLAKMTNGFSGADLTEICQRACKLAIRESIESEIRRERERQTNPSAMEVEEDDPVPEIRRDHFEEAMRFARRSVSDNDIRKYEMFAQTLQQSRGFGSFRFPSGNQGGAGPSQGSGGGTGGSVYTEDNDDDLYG

| SMILES | inhibition [1] | half-life at 1 µM [2] | Activity [3] | inhibition [4] | half-life [5] | half-life at 1 µM [6] | half-life at 1 µM [7] | solubility thermodynamic at 24 h [8] | EC50 [9] | half-life [10] | half-life at 1 µM [11] |
| --- | --- | --- | --- | --- | --- | --- | --- | --- | --- | --- | --- |
| COCCOc1ccc(NC(=O)N(O)C2N(c3ccc(Cl)cc3)C(=O)N(CC(=O)N/N=C/C=C/c3ccc([N+](=O)[O-])o3)C2(C)C)cc1 (stereo not given) | Active | 2.07 h | Non-Toxic | Active | 12.5 h | 23.1 h | 16.5 h | 2.3 µM (≈ 1.54 µg/mL) | 5.4 µM | 9.5 h | 1.75 h |
| COCCOc1ccc(N2C(=O)N(CC(=O)N/N=C/C=C/c3ccc([N+](=O)[O-])o3)C(C)(C)C2N(O)C(=O)Nc2ccc(Cl)cc2)cc1 (stereo not given) | Active | 0.53 h | Non-Toxic | Active | 15.7 h | 57.8 h | 14.4 h | 2.8 µM (≈ 1.88 µg/mL) | 6.3 µM | 17.2 h | 2.32 h |
| COCCOc1ccc(NC(=O)N(O)C2N(c3ccc(OCCOC)cc3)C(=O)N(CC(=O)N/N=C/C=C/c3ccc([N+](=O)[O-])o3)C2(C)C)cc1 (stereo not given) | – | – | Non-Toxic | – | – | – | – | 64.2 µM (≈ 45.6 µg/mL) | 38.4 µM | – | – |
